From patent publication US20210215714A1, “COMPLEMENT ALTERNATIVE PATHWAY-ASSOCIATED NEPHROPATHY BIOMARKERS” (Achillion Pharmaceuticals, Inc., priority 2018, published 2021)

Test system: Ba
Assay: Phase 2a study: urinary Ba (MicroVue Ba Enzyme Immunoassay)
Format: in vivo, human
[1] = Patient A, 100 mg TID, Day 1/0 Hour
[2] = Patient A, 100 mg TID, Day 7/0 Hour
[3] = Patient A, 100 mg TID, Day 15 Taper
[4] = Patient A, 100 mg TID, Day 16 Taper
[5] = Patient A, 100 mg TID, Day 17 Taper
[6] = Patient A, 100 mg TID, Day 21 Taper
[7] = Patient A, 100 mg TID, Follow-Up Day 24
[8] = Patient A, 100 mg TID, Follow-Up Day 28
[9] = Patient A, 100 mg TID, Follow-Up Day 49
[10] = Patient B, 100 mg TID, Day 1/0 Hour
[11] = Patient B, 100 mg TID, Day 7/0 Hour
[12] = Patient B, 100 mg TID, Day 15 Taper
[13] = Patient B, 100 mg TID, Day 16 Taper
[14] = Patient B, 100 mg TID, Day 17 Taper
[15] = Patient B, 100 mg TID, Day 21 Taper
[16] = Patient B, 100 mg TID, Follow-Up Day 24
[17] = Patient B, 100 mg TID, Follow-Up Day 28
[18] = Patient B, 100 mg TID, Follow-Up Day 49
[19] = Patient C, 200 mg TID, Day 1/0 Hour
[20] = Patient C, 200 mg TID, Day 7/0 Hour
[21] = Patient C, 200 mg TID, Day 15 Taper
[22] = Patient C, 200 mg TID, Day 16 Taper
[23] = Patient C, 200 mg TID, Day 17 Taper
[24] = Patient C, 200 mg TID, Day 21 Taper
[25] = Patient C, 200 mg TID, Follow-Up Day 24
[26] = Patient C, 200 mg TID, Follow-Up Day 28
[27] = Patient C, 200 mg TID, Follow-Up Day 49
[28] = Patient D, 200 mg TID, Day 1/0 Hour
[29] = Patient D, 200 mg TID, Day 7/0 Hour
[30] = Patient D, 200 mg TID, Day 15 Taper
[31] = Patient D, 200 mg TID, Day 17 Taper
[32] = Patient D, 200 mg TID, Day 21 Taper

## CC(=O)c1nn(CC(=O)N2C[C@H](F)C[C@H]2C(=O)Nc2cccc(Br)n2)c2ccc(-c3cnc(C)nc3)cc12 [Compound 1, (2S,4R)-1-(2-(3-acetyl-5-(2-methylpyrimidin-5-yl)-1H-indazol-1-yl)acetyl)-N-(6-bromopyridin-2-yl)-4-fluoropyrrolidine-2-carboxamide]
[1]
  Ba/ALB: 22.1 ng/mg
  Ba/Cr: 5.7 µg/mmol
  Urine Ba: 47.1 ng/mL
Patient A, 100 mg TID, Day 4
  Ba/ALB: 8.4 ng/mg
  Ba/Cr: 1.8 µg/mmol
  Urine Ba: 14.7 ng/mL
[2]
  Ba/ALB: 7.5 ng/mg
  Ba/Cr: 1.8 µg/mmol
  Urine Ba: 11.6 ng/mL
Patient A, 100 mg TID, Day 10
  Ba/ALB: 6.1 ng/mg
  Ba/Cr: 1.4 µg/mmol
  Urine Ba: 8.6 ng/mL
[3]
  Ba/ALB: 11.4 ng/mg
  Ba/Cr: 1.6 µg/mmol
  Urine Ba: 11.9 ng/mL
[4]
  Ba/ALB: 16.3 ng/mg
  Ba/Cr: 2.3 µg/mmol
  Urine Ba: 17.4 ng/mL
[5]
  Ba/ALB: 18.6 ng/mg
  Ba/Cr: 2.1 µg/mmol
  Urine Ba: 21.2 ng/mL
[6]
  Ba/ALB: 65.5 ng/mg
  Ba/Cr: 9.2 µg/mmol
  Urine Ba: 79.8 ng/mL
[7]
  Ba/ALB: 83.3 ng/mg
  Ba/Cr: 11.5 µg/mmol
  Urine Ba: 115.3 ng/mL
[8]
  Ba/ALB: 77.1 ng/mg
  Ba/Cr: 10.2 µg/mmol
  Urine Ba: 100.8 ng/mL
[9]
  Ba/ALB: 26.5 ng/mg
  Ba/Cr: 3.8 µg/mmol
  Urine Ba: 16.5 ng/mL
Patient A, 100 mg TID, Screen
  Ba/ALB: 15.0 ng/mg
  Ba/Cr: 3.4 µg/mmol
  Urine Ba: 28.3 ng/mL
[10]
  Ba/ALB: 225 ng/mg
  Ba/Cr: 129.9 µg/mmol
  Urine Ba: 793 ng/mL
Patient B, 100 mg TID, Day 4
  Ba/ALB: 47 ng/mg
  Ba/Cr: 12.4 µg/mmol
  Urine Ba: 158 ng/mL
[11]
  Ba/ALB: 41 ng/mg
  Ba/Cr: 10.2 µg/mmol
  Urine Ba: 149 ng/mL
Patient B, 100 mg TID, Day 10
  Ba/ALB: 28 ng/mg
  Ba/Cr: 7.0 µg/mmol
  Urine Ba: 53 ng/mL
Patient B, 100 mg TID, Day 14
  Ba/ALB: 54 ng/mg
  Ba/Cr: 14.2 µg/mmol
  Urine Ba: 238 ng/mL
[12]
  Ba/ALB: 58 ng/mg
  Ba/Cr: 19.0 µg/mmol
  Urine Ba: 209 ng/mL
[13]
  Ba/ALB: 77 ng/mg
  Ba/Cr: 25.2 µg/mmol
  Urine Ba: 318 ng/mL
[14]
  Ba/ALB: 55 ng/mg
  Urine Ba: 164 ng/mL
[15]
  Ba/ALB: 43 ng/mg
  Ba/Cr: 15.9 µg/mmol
  Urine Ba: 129 ng/mL
[16]
  Ba/ALB: 87 ng/mg
  Ba/Cr: 41.1 µg/mmol
  Urine Ba: 251 ng/mL
[17]
  Ba/ALB: 65 ng/mg
  Ba/Cr: 24.6 µg/mmol
  Urine Ba: 175 ng/mL
[18]
  Ba/ALB: 771 ng/mg
  Ba/Cr: 108.0 µg/mmol
  Urine Ba: 1727 ng/mL
Patient B, 100 mg TID, Screen
  Ba/ALB: 97 ng/mg
  Ba/Cr: 47.1 µg/mmol
  Urine Ba: 348 ng/mL
[19]
  Ba/ALB: 2.9 ng/mg
  Ba/Cr: 0.168 µg/mmol
  Urine Ba: 0.30 ng/mL
Patient C, 200 mg TID, Day 4
  Ba/ALB: 1.5 ng/mg
  Ba/Cr: 0.040 µg/mmol
  Urine Ba: 0.08 ng/mL
[20]
  Ba/ALB: 2.6 ng/mg
  Ba/Cr: 0.056 µg/mmol
  Urine Ba: 0.21 ng/mL
Patient C, 200 mg TID, Day 10
  Ba/ALB: 1.5 ng/mg
  Ba/Cr: 0.053 µg/mmol
  Urine Ba: 0.08 ng/mL
Patient C, 200 mg TID, Day 14
  Ba/ALB: 2.2 ng/mg
  Ba/Cr: 0.068 µg/mmol
  Urine Ba: 0.09 ng/mL
[21]
  Ba/ALB: 2.2 ng/mg
  Ba/Cr: 0.099 µg/mmol
  Urine Ba: 0.15 ng/mL
[22]
  Ba/ALB: 3.0 ng/mg
  Ba/Cr: 0.078 µg/mmol
  Urine Ba: 0.15 ng/mL
[23]
  Ba/ALB: 1.8 ng/mg
  Ba/Cr: 0.058 µg/mmol
  Urine Ba: 0.13 ng/mL
[24]
  Ba/ALB: 7.5 ng/mg
  Ba/Cr: 0.175 µg/mmol
  Urine Ba: 0.49 ng/mL
[25]
  Ba/ALB: 2.3 ng/mg
  Ba/Cr: 0.075 µg/mmol
  Urine Ba: 0.14 ng/mL
[26]
  Ba/ALB: 4.5 ng/mg
  Ba/Cr: 0.213 µg/mmol
  Urine Ba: 0.62 ng/mL
[27]
  Ba/ALB: 1.7 ng/mg
  Ba/Cr: 0.036 µg/mmol
  Urine Ba: 0.16 ng/mL
Patient C, 200 mg TID, Screen
  Ba/ALB: 1.5 ng/mg
  Ba/Cr: 0.065 µg/mmol
  Urine Ba: 0.12 ng/mL
[28]
  Ba/ALB: 10.9 ng/mg
  Ba/Cr: 2.5 µg/mmol
  Urine Ba: 14.2 ng/mL
Patient D, 200 mg TID, Day 4
  Ba/ALB: 3.5 ng/mg
  Ba/Cr: 1.0 µg/mmol
  Urine Ba: 4.4 ng/mL
[29]
  Ba/ALB: 6.5 ng/mg
  Ba/Cr: 2.1 µg/mmol
  Urine Ba: 2.4 ng/mL
Patient D, 200 mg TID, Day 10
  Ba/ALB: 2.8 ng/mg
  Ba/Cr: 1.8 µg/mmol
  Urine Ba: 1.8 ng/mL
Patient D, 200 mg TID, Day 14
  Ba/ALB: 4.6 ng/mg
  Ba/Cr: 1.3 µg/mmol
  Urine Ba: 4.1 ng/mL
[30]
  Ba/ALB: 4.3 ng/mg
  Ba/Cr: 2.0 µg/mmol
  Urine Ba: 8.4 ng/mL
[31]
  Ba/ALB: 2.9 ng/mg
  Ba/Cr: 1.7 µg/mmol
  Urine Ba: 5.0 ng/mL
[32]
  Ba/ALB: 7.8 ng/mg
  Ba/Cr: 4.4 µg/mmol
